Reference: patent US7105531B2, “Tricyclic protein kinase inhibitors” (WYETH, priority 1999, dated 2006)

How the values were obtained:
[1] = target: T1, recombinant human MEK 1 (MAPKK) and recombinant human ERK2 (MAPK) (Homo sapiens, UniProt P28482+Q02750); experiment: Mitogen Activated Protein Kinase (MAPK) coupled Mek-Erk test procedure; assay type: biochemical
T1 construct: GST
Method: To evaluate inhibitors of the MAP (mitogen activated protein) kinase a two component coupled standard pharmacological test procedure, which measures phosphorylation of a serine/threonine residue in an appropriate sequence in the substrate in the presence and absence of a putative inhibitor, is used. Recombinant human MEK 1 (MAPKK) is first used to activate recombinant human ERK2 (MAPK) and the activated MAPK (ERK) is incubated with substrate (myelin basic protein peptide (MBPP) or Myc peptide) in the presence of ATP, Mg^+2 and radiolabeled ^33P ATP. The phosphorylated peptide is captured on a P 81 phosphocellulose filter (paper filter or embedded in microtiter plate) washed and counted by scintillation methods.
The peptide substrates used in the assay are MBPP, peptide substrate ([…]), or synthetic Myc substrate, ([…].5 TFA). The recombinant enzymes used are prepared as GST fusion proteins of human ERK 2 and human MEK 1. Inhibitor samples are prepared as 10× stocks in 10% DMSO and an appropriate aliquot is used to deliver either 10 ug/ml for a single point screening dose or 100 to 0.0001 uM final concentration for a dose response curve. Final DMSO concentrations are less than or equal to 1%.
The reaction is run as follows in 50 mM Tris kinase buffer, pH 7.4 in a reaction volume of 50 ul. The appropriate volume of kinase buffer and inhibitor sample is added to the tube. Appropriate dilution of enzyme is delivered to give 2–5 ug recombinant MAPK (Erk) per tube. The inhibitor is incubated with MAPK (Erk) for 30 min at 0 deg. C. Recombinant Mek (MAPKK) (0.5–2.5 ug) or fully activated Mek (0.05–0.1 units) is added to activate the Erk and incubated for 30 min at 30° C. Then substrate and γ^33P ATP are added to give a final concentration of 0.5–1 mM MBPP or 250–500 uM Myc; 0.2–0.5 uCi gamma P 33 ATP/tube; 50 μM ATP final concentration. Samples are incubated at 30° C. for 30 minutes and the reaction is stopped by adding 25 μl of ice cold 10% trichloroacetic acid (TCA). After samples are chilled on ice for 30 min. 20 μl of sample is transferred onto P 81 phosphocellulose filter. Filter papers are washed 2 times with a large volume of 1% acetic acid, then 2 times with water. The filters are briefly air dried before addition of scintillant and samples are counted in the appropriate scintillation counter set up for reading ^33P isotope. Samples include a positive control (activated enzyme plus substrate); a no enzyme control; a no substrate control; samples with different concentrations of putative inhibitor, and samples with reference inhibitors (other active compounds or non-specific inhibitors such as staurosporine or K252 B).
The raw data is captured as cpm. Sample replicates are averaged and corrected for background count. Mean cpm data is tabulated by group and % inhibition by a test compound is calculated as (corrected cpm control−corrected. cpm sample/control)×100=% inhibition).

[2] = target: T2, Rat2 fibroblasts transformed with v-Src/Hu c-Src fusion gene (Homo sapiens, UniProt P12931, cells depend on it, form not given); experiment: Anchorage independent Src-transformed fibroblast proliferation test procedure; assay type: cell-based, rat; conditions: for Src TF prolif % Inh: @ dose 10 μM; for GI50: rat2 fibroblasts transformed with v-src/hu c-src fusion gene, read-out: Src TF prolif IC50
T2 construct: fused on or other part: The v-Src frame of Rous sarcoma virus: everything outside the catalytic domain, namely the N-terminal unique/SH3/SH2 part; Candidates are Prague C (P00526), then Schmidt-Ruppin A (P00524)
T2 sequence (P12931 whole entry, change not shown, the tested form may be a part): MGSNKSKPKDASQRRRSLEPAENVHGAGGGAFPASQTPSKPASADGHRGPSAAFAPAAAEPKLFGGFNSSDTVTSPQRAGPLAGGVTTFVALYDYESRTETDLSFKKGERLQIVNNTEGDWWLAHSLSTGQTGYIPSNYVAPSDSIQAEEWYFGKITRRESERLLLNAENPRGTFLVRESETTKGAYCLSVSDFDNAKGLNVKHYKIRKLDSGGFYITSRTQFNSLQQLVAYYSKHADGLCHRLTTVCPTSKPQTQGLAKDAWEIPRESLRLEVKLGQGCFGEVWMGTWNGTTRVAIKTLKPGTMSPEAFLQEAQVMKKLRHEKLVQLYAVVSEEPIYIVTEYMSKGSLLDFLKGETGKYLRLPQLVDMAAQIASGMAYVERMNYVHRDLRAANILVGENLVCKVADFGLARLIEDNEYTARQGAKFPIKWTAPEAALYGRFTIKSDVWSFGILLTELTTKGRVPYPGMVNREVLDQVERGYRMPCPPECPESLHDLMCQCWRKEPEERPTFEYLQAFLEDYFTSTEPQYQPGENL
Source text: Anchorage Independent Src-transformed Fibroblast Proliferation Test Procedure: Rat2 fibroblasts stably transformed with a plasmid containing CMV promotor controlled v-Src/Hu c-Src fusion gene in which the catalytic domain of human c-Src is inserted in place of the v-Src catalytic domain in the v-Src gene are used for the measurement of src dependent suspension growth.

p60^c-src (Src) = target: T3, p60^c-src (Src) (Homo sapiens, UniProt P12931); experiment: Src kinase test procedure (Elisa format); assay type: biochemical
T3 construct: purchased Upstate Biotechnologies
T3 sequence (P12931 whole entry, species assumed): as the sequence (P12931 whole entry, change not shown, the tested form may be a part) above
Method: Inhibitors of p60^c-src (partially purified preparation purchased from Upstate Biotechnologies) tyrosine kinase activity are analyzed in an Elisa format. […] HRP-conjugated anti-phosphotyrosine is used to detect phosphorylated peptide via a color reaction. Conditions recommended by the manufacturer are employed.
The reaction mixture with the phosphorylated peptide is then transferred to a streptavidin-coated microtiter plate (provided in the kit) and allowed to bind for 20 minutes. Unbound peptide and reaction mixture is decanted and the plate is washed with PBS six times. Horseradish peroxidase-conjugated phosphotyrosine antibody supplied in the kit is incubated with the plate for one hour, then decanted. The plate is again washed with PBS six times.

HT-29 cells = experiment: Cell proliferation test procedure, HT-29 cells; assay type: cell-based; conditions: Homo sapiens, read-out: HT-29 prolif IC50
Method: HT-29 cells: Compound effectiveness at inhibiting cell proliferation on plastic is performed in a 96-well format by plating 5000 cells per well in appropriate medium on day one, followed by compound addition on day 2 in serial two-fold dilutions. On day five, compound is washed away and medium containing MTS reagent (Promega) is added. Relative cell number is determined by reading the absorbance at 490 nm of a dye produced by an NAD-dependent cellular enzymatic reaction.

Row | Structure (SMILES) | Mek-Erk IC50 [1] [nM] | melting point | further results
1 | N#Cc1cnc2cc3ccccc3cc2c1Nc1ccc(Oc2ccccc2)cc1 [Example 3, 4-(4-Phenoxyanilino)benzo[g]quinoline-3-carbonitrile] | 200 | 250 to 251 °C | 
2 | N#Cc1cnc2c(c1Nc1ccc(Cl)cc1Br)C=C1N=CN=C1C2 [Example 38, 8-(2-Bromo-4-chlorophenylamino)imidazo[4,5-g]quinoline-7-carbonitrile] | 1300 | 244 to 246 °C | Src TF prolif % Inh [2]: 0%
3 | COc1cc(Nc2c(C#N)cnc3c2C=C2N=CN=C2C3)c(Br)cc1Cl [Example 39, 8-(2-Bromo-4-chloro-5-methoxyphenylamino)imidazo[4,5-g]quinoline-7-carbonitrile] | 1300 | 257 °C (dec.) | Src TF prolif % Inh [2]: 25%
4 | COc1ccc(Cl)c(Nc2c(C#N)cnc3c2C=C2N=CN=C2C3)c1 [Example 40, 8-(2-Chloro-5-methoxy-phenylamino)imidazo[4,5-g]quinoline-7-carbonitrile] | 500 | 296 to 298 °C | Src TF prolif % Inh [2]: 0%
5 | N#Cc1cnc2c(c1Nc1ccc(Oc3ccccc3)cc1)C=C1N=CN=C1C2 [Example 44, 8-(4-Phenoxyanilino)imidazo[4,5-g]quinoline-7-carbonitrile] | 30 | > 270 °C | 
6 | N#Cc1cnc2c(sc3ccccc32)c1Nc1ccc(Oc2ccccc2)cc1 [Example 69, 4-(4-Phenoxyphenylamino)benzo[4,5]thieno[3,2-b]pyridine-3-carbonitrile] | 3000 | 230 to 233 °C | 
7 | COc1cc(Nc2c(C#N)cnc3c2sc2ccc([N+](=O)[O-])cc23)c(C)cc1Cl [Example 75] |  |  | Src % Inh (p60^c-src (Src); dose 10 μM): 0%
8 | COc1cc(Nc2c(C#N)cnc3cc4cc(OCCN5CCN(C)CC5)c(OC)cc4cc23)c(C)cc1Cl [Example 133, 4-(4-chloro-5-methoxy-2-methylanilino)-7-methoxy-8-[2-(4-methyl 1-piperazinyl)ethoxy]benzo[g]quinoline-3-carbonitrile] |  |  | IC50 (HT-29 cells): 8600 nM
9 | COc1cc(Nc2c(C#N)cnc3cc4cc(OCCN5CCN(C)CC5)c(OC)cc4cc23)c(Cl)cc1C [Example 203] |  |  | IC50 (p60^c-src (Src)): 4.2 nM; GI50 [2]: 71 nM
10 | COc1cc2cc3ncc(C#N)c(Nc4ccc(F)c(Cl)c4)c3cc2cc1OCCN1CCOCC1 [Example 212, 4-(3-Chloro-4-fluoroanilino)-8-methoxy-7-[2-(4-morpholinyl)ethoxy]benzo[g]quinoline-3-carbonitrile] |  | 205 to 210 °C | GI50 [2]: > 10000 nM
11 | COc1cc(Nc2c(C#N)cnc3cc4cc(OCCN5CCOCC5)c(OC)cc4cc23)c(Cl)cc1C [Example 216, 4-(2-Chloro-5-methoxy-4-methylphenylamino)-7-methoxy-8-(2-morpholin-4-yl-ethoxy)benzo[g]quinoline-3-carbonitrile] |  | 220 to 222 °C | IC50 (HT-29 cells): 9950 nM
